Read-outs that look alike come from different tables or passages of the source.
Experiments:
α5β3γ2 receptor = target: T1, α5β3γ2 receptor (Homo sapiens, UniProt P18507+P31644); experiment: Cell level screening: whole cell patch clamp, inverse agonist efficacy; assay type: cell-based; conditions: for inverse agonism efficacy of the compound/α5IA inverse agonism efficacy: ratio to α5IA, compound 100 nM
T1 construct: expressed in transfected cells; host or cells: HEK-293 (stably transfected)

[1] = Tissue distribution of the compounds (brain/plasma); assay type: in vivo; conditions: brain and plasma, po; rat, 10 mg/kg p.o. in 50% PEG400, one hour; read-out: Brain/Plasma ratio
Description: (§1) The distribution ratio of blood brain tissue was calculated by comparing the concentration of compound in rat plasma and brain tissue. The experimental animals were divided into two groups, the plasma group and the brain group, each with three. Rats were administed compounds in 50% PEG400 p.o. at a dose of 10 mg compound to be tested/kg. One hour later, plasma and brain samples were taken. Concentrations of compounds in brain and plasma were detected using LC-MS/MS-A (Triple Quad 5500) assay and analyzed using Phoenix WinNonlin.

[2] = Compound tissue distribution (brain/plasma); assay type: in vivo; conditions: brain and plasma, po; rat, 10 mg/kg p.o. in 50% PEG400, one hour; read-out: Brain/Plasma ratio
Description: as §1, with “To measure brain to plasma ratio, rats” for “Rats”, “LC-MS/MS-AJ” for “LC-MS/MS-A”
We also measured the brain to plasma ratio of compound #24. The experimental animals were divided into two groups, the plasma group and the brain group, each with three. To measure the brain to plasma ratio, Rats were administered compounds (1 mg/kg in 5% DMSO+70% PEG400+25% H2O p.o.). One hour later, plasma and brain samples were taken. Concentrations of compounds in brain and plasma were detected using a LC-MS/MS-AJ (Triple Quad 5500) assay and analyzed using Phoenix WinNonlin.

[3] = HEK293, compound 100 nM, GABA 0.05-0.1 μM, HEK293 α5β3γ2, clamped at −60 mV, (Ipost-Ipre)*100/Ipre, read-out: inverse agonism efficacy(%)

T1 sequence (P31644 32-462): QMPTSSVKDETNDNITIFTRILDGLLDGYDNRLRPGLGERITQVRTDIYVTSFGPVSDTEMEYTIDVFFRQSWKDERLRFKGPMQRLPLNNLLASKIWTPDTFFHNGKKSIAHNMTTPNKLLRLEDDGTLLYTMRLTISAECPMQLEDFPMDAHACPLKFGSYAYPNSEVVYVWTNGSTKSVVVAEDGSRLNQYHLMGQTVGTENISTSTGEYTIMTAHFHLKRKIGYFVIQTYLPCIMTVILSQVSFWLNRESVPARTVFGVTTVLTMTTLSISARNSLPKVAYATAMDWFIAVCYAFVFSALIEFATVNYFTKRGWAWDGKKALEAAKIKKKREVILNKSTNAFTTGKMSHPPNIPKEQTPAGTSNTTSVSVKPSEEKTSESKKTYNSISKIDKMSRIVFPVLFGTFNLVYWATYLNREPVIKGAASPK
T1 sequence (P28472 26-473 isoform P28472-2 partner limits assumed): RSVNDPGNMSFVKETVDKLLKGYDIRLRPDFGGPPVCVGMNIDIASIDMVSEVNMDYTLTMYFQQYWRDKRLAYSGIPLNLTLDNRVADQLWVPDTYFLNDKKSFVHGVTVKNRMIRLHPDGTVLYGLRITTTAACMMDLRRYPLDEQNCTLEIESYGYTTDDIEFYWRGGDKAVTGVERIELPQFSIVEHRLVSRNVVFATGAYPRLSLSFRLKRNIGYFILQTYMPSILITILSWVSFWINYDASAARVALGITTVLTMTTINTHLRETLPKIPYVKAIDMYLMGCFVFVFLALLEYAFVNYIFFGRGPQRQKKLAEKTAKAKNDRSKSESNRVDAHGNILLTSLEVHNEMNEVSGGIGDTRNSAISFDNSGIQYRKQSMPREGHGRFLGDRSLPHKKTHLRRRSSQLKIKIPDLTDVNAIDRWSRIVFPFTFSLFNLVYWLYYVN
T1 sequence (P18507 40-475): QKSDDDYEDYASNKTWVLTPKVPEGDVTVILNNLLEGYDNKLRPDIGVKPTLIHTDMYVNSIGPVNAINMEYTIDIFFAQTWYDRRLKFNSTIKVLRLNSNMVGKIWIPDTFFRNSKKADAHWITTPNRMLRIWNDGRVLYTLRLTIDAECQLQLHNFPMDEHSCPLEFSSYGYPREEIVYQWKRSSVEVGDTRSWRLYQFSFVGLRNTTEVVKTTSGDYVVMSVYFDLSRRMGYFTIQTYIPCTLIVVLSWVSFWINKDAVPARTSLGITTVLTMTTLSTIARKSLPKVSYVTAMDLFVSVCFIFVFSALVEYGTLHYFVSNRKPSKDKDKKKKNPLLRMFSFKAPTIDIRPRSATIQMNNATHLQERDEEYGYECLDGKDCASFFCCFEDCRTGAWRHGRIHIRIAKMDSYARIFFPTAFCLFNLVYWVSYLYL

inhibition at 0.1 µM (α5β3γ2 receptor; [3]) [%] | inverse agonism efficacy of the compound/α5IA inverse agonism efficacy (α5β3γ2 receptor) | Kp at 1 h [1] | Kp at 1 h [2] | inhibition at 0.01 µM (α5β3γ2 receptor; dose-efficacy, Con. 10 nM, single replicates, read-out: Inverse agonism-Efficacy) [%] | inhibition at 0.05 µM (α5β3γ2 receptor; dose-efficacy, Con. 50 nM, single replicates, read-out: Inverse agonism-Efficacy) [%] | inhibition at 0.1 µM (α5β3γ2 receptor; dose-efficacy, Con. 100 nM, single replicates, read-out: Inverse agonism-Efficacy) [%] | inhibition at 1 µM (α5β3γ2 receptor; dose-efficacy, Con. 1000 nM, single replicates, read-out: Inverse agonism-Efficacy) [%] | Structure (SMILES)
34 | 1.508 | < 0.01 | < 0.01 |  |  |  |  | COCCNC(=O)c1ccc(COc2nn3c(-c4cc(C)on4)nnc3c3ccccc23)nc1 [Compound 08, N-(2-methoxyethyl)-6-(((3-(5-methylisoxazol-3-yl)-[1,2,4]triazolo[3,4-a]phthalazin-6-yl)oxy)methyl)nicotinamide]
24.8 | 1.1 | < 0.01 | < 0.01 | 25.5 | 40 | 45.8 | 39.1 | CCNC(=O)c1ccc(COc2nn3c(-c4cc(C)on4)nnc3c3ccccc23)nc1 [Compound 07, N-ethyl-6-(((3-(5-methylisoxazol-3-yl)-[1,2,4]triazolo[3,4-a]phthalazin-6-yl)oxy)methyl)nicotinamide]

From patent US11220503B2, “Phthalazine derivatives, preparation method, pharmaceutical composition and usage thereof” (Shanghai SIMR Biotech Co., Ltd., priority 2015, dated 2022)
